We go through 6 compounds from patent US20170332910A1, “MODIFIED PARAMAGNETIC NANOPARTICLES FOR TARGETED DELIVERY OF THERAPEUTICS AND METHODS THEREOF” (ALBERT EINSTEIN COLLEGE OF MEDICINE, INC., priority 2014, published 2017).

In data set [1] the test system is xenografted human breast cancer. Briefly: ADM-PMNP plus magnetic field on xenografted human breast cancer (bioluminescence). It is filed as in vivo, mouse. The note with it: comparable amount of free drug. How it is done: FIG. 8 Anti-tumor effect of IV infused Adriamycin loaded PMNP (ADM-PMNP) plus magnetic field treatment on xenografted human breast cancer. Human breast cancer was s.c. xenografted in a female nude mouse. The mouse was injected with 1 mg/kg ADM-PMNP and the tumor was treated with magnetic field for 30 minutes following each injection The mouse was imaged before and after the treatment, the luminescent signals were quantitatively analyzed for change of tumor size. At the end of the treatment, there was a >80% decrease of luminescent signaling in the tumor. The signal recovered partially 3 days after the treatment was ended.
Signal intensity in treated tumor was similar to that in bladder, a major route of PMNP elimination. Next, to assess drug delivery and anti-tumor efficacy, MoB-1833 mammary xenografted tumor-bearing mice were infused with ADM-coated PMNP (ADM-PMNP). ADM use in chemotherapy is limited due to systemic toxicity and it is therefore an excellent model drug for evaluation of the potentially utility of our PMNP platform. […] This ADM dose is 5-20 times lower than doses of free ADM commonly used for in animal studies and similar to doses used clinically. The 4-day treatment achieved a 9-fold reduction in tumor mass (FIG. 8). Tumor rebound upon drug termination confirmed specificity of the drug effect. […] The necrosis was confirmed histologically (FIG. 9Bd-f). […]

Another data set concerns MDA-MB-436. Briefly: Tumor necrosis in MDA-MB-436 xenografts. It is filed as in vivo, mouse. The settings on record: 1.0 mg/kg.
Data set [2] can be described thus: Histopathological analysis of multiple tissues (toxicity). The settings on record: 1 mg/kg. In kind it is in vivo, mouse. How it is done: FIGS. 11(A-B). Systemic effect of the treatment. (A) Representative H&E staining of tissue sections from ADM-PMNP injected mice (1 mg/kg BW)(A). (B) inflammation and hyperplasia were found in colon from mice treated with free ADM (B-left) but not in mice injected with the same dose of ADM-PMNP (B-right).

In data set [3] the test system is human glioblastoma (GBM43). Description: LPS-PMNPs and oral temozolomide, survival and drug delivery. In kind it is in vivo, mouse. The note with it: oral 20 mg/kg after LPS-PMNP with magnetic field; relative to groups 1-3. How it is done: In this study, human glioblastoma (GBM43) were again maintained as subcutaneous xenografts. The tumor cells from subcutaneous xenografts were transfer to the intracranial compartment. Cells were suspended in DMEM media at 1×10^5 cells/μL for intracranial injection. 3 μL of tumor cell suspension (3×10^5 cells total) were injected into the right caudate putamen of 6 week-old female athymic mice (nu/nu). Prior to injection, the mice were anesthetized IP (intraperitoneal injection) (ketamine/xylazine). PMNPs (10 mg/kg) with and without LPS were administered via tail vein. 6 hours after administration of PMNPs, 20 mg/kg temozolomide (TMZ) was administrated as oral suspension in a vehicle containing 2.5 mg/ml Povidone K30, 0.015% citric acid, 50% Ora-Plus, 50% Ora-Sweet SF (Paddock Labs Minneapolis, Minn.) on days 12, 18, 24, and 30. The treatment groups were: 1) control (no TMZ); 2) TMZ alone; 3) LPS-PMNP plus TMZ (without magnetic field); and 4) LPS-PMNP plus TMZ with magnetic field (strong localized magnetic field applied to tumor area). The mice were euthanized as the symptoms from the increasing tumor burden prevented access to food/water.

The subject of data set [4] is U87 human glioblastoma cells. Briefly: Cell viability assay (Presto Blue). The settings on record: 48 h incubation. It is filed as cell-based. How it is done: FIG. 22 Cytotoxicity of naked curcumin, curcumin conjugated PMNPs and Sol-Gel Nps and blanks (without curcumin) performed on U87 human glioblastoma cells after 48 hours of incubation. Note that 1 μM equivalent curcumin concentration corresponds to 16.7 μg/mL of nanoparticles. […] The data represents the mean±SE, n=3 to 18.
Cells were plated in 24-well trays and allowed to become confluent then incubated with naked curcumin or different curcumin NP concentrations for 48 h. Cell viability was quantified using Presto Blue (Invitrogen) an assay that contains a cell permeable resazurin-based solution that is modified by the reducing environment of the viable cell becoming highly fluorescent. Using a plate reader, cell viability was quantified after 0.5-1 hours of incubation with Presto Blue. All measurements were always accompanied by control wells and by calibration wells to account for background fluorescence using the same culture media and the same NP concentrations without the cells.
U-87 used as an vitro model of human glioblastoma were incubated with either Curcumin or Curcumin loaded NPs.

For data set [5], the system named is human breast cancer xenographs. Description: MRI of magnetic field induced localization of gadolinium oxide based PMNPs. It is filed as in vivo, mouse. The protocol:
FIGS. 3(A-D). […] By applying a magnet field for 30 minutes at hind end (blue arrows), the enhanced image of hind-end tumor is observed (3B). The enhanced image of the tumor persists for at least several hours. […] The PMNPs are concentrated at site of a lower abdominal mammary tumor (FIG. 3C) using an external magnetic field placed over the tumor for 30 minutes. […] Imaging was performed over several hours without taking the mouse out of MRI machine thereby maintaining all of the imaging parameters.
FIGS. 4(A-B). Compares the MRI contrast data between […] (gadopentetate dimeglumine) and gadolinium oxide-based PMNPs.
In FIG. 3 are presented results on magnetic immobilization of gadolinium-based PMNPs in a mouse with numerous human breast cancer xenographs. There is no image enhancement for any of the multiple tumors located in different parts of the mouse including one at hind end (green-arrow at bottom of the picture marked tumor). The mouse was then removed and then subjected to thirty minutes of having a magnetic field placed over the tumor demarked by the green arrow. […] The intensity of MRI signal is very similar at both tumor and bladder. This is very different than observed in case of […] where there is a transient image of the bladder and no site specific localization of the contrast agent in any one of the tumors. […]

In data set [6] the test system is human glioblastoma (GBM43). Description: Effect of LPS-PMNPs on delivery of irinotecan, intracranial glioblastoma. The settings on record: LPS-PMNP plus magnetic field vs groups 1 and 2, 24 hours after dose on day 18. It is filed as in vivo, mouse. How it is done:
In this study, human glioblastoma (GBM43) were maintained as subcutaneous xenografts. The tumor cells from subcutaneous xenografts were transfer to the intracranial compartment. Cells were suspended in DMEM media at 1×10^5 cells/μL for intracranial injection. 3 μL of tumor cell suspension (3×10^5 cells total) were injected into the right caudate putamen of 6 week-old female athymic mice (nu/nu). Prior to injection, the mice were anesthetized IP (intraperitoneal injection) (ketamine/xylazine). 0.4 mg of irinotecan was administrated via tail vein to each mouse on day 12 after implantation of tumor cells, and repeated at days 18, 24, and 30. LPS-PMNPs were administered via tail vein 4 hours prior to administration of irinotecan. All treatment groups received treatment with irinotecan. The treatment groups were: 1) control (without LPS-PMNP treatment); 2) LPS-PMNP (LPS-PMNP treatment without magnetic field); and 3) LPS-PMNP with magnetic field (strong localized magnetic field applied to tumor area). For group 3, the strong localized magnetic field was applied to the tumor cranial area using a conical magnet. […]
The irinotecan content in the brain and the tumor from a mouse in each group was also determined. […] Irinotecan levels in the tumor tissues were measured from homogenized tissues in acidic methanol solution, and measured using an HPLC (eluted peaks, 380/540 nm). […]

For data set [7], the system named is TNFα, TGBβ, MCP-1, IL-1α, IL-1β, IL-6, IL-10, and IL-12. Description: Time-dependent cytokine levels (systemic inflammation). In kind it is in vivo, mice. How it is done:
This study monitored the time-dependent changes in various cytokine levels (TNFα, TGBβ, MCP-1, IL-1α, IL-1β, IL-6, IL-10, and IL-12) for LPS-PMNPs (10 mg/kg) in mice with and without magnetic field (i.e., treatment with or without a localized magnet) as compared with free LPS introduced at 10 mg/kg and 2 mg/kg—a lower concentration than for the LPS carried on the PMNPs. The cytokine levels for each group were measured over a 24-hour period, with measurements at baseline, 1 hour, 6 hours, and 24 hours. The four comparison groups were: A) LPS-PMNP (10 mg/kg) without magnetic field; B) LPS-PMNP (10 mg/kg) with magnetic field; C) free LPS (2 mg/kg); and D) free LPS (10 mg/kg).

Turning to `COc1cccc2c1C(=O)c1c(O)c3c(c(O)c1C2=O)C[C@@](O)(C(=O)CO)C[C@@H]3O[C@H]1C[C@H](N)[C@H](O)[C@H](C)O1` [Adriamycin, Adriamycin (doxorubicin)], in data set [1], the anti-tumor effect result is “relatively ineffective”. For the same compound, in the data set with MDA-MB-436, the tumor necrosis entry is “smaller necrotic lesions”. Besides, the histopathological findings entry in data set [2] was “colonic inflammation and hyperplasia”. As for `Cn1nnc2c(C(N)=O)ncn2c1=O` [TMZ, temozolomide], the “TMZ content in the tumor” value in data set [3] is recorded as “greater TMZ content in the tumor”. Take `COc1cc(/C=C/C(=O)CC(=O)/C=C/c2ccc(O)c(OC)c2)ccc1O` [curcumin, Curcumin]: in data set [4], the “equivalent curcumin concentration able to significantly decrease cell viability by 20%” value amounted to 5 µM. `CNC[C@H](O)[C@@H](O)[C@H](O)[C@H](O)CO.CNC[C@H](O)[C@@H](O)[C@H](O)[C@H](O)CO.O=C([O-])CN(CCN(CC(=O)[O-])CC(=O)O)CCN(CC(=O)[O-])CC(=O)O.[Gd+3]` [gadopentetate dimeglumine]: the “persistence of MRI contrast” value in data set [5] (mouse, in vivo) was “short lived”. Also, the “distribution of contrast agent (MRI)” value in data set [5] (within a short time, no magnetic field) is on record as “concentrates in the bladder”. As for `CCc1c2c(nc3ccc(OC(=O)N4CCC(N5CCCCC5)CC4)cc13)-c1cc3c(c(=O)n1C2)COC(=O)[C@]3(O)CC` [irinotecan], the “irinotecan content in the brain” value in data set [6] was “higher”. In addition, the “irinotecan content in the tumor” value in data set [6] (HPLC) was “significantly higher”. Take lipopolysaccharides [free LPS]: the acute inflammation result in data set [7] (2 mg/kg, compared with LPS-PMNP (10 mg/kg)) was “substantially greater”. Also, the inflammation over time result in data set [7] (10 mg/kg) is “produced endotoxemia”.
